The METLIN SMRT retention time set (Domingo-Almenara et al. 2019)

Assay: gradient 5% acetonitrile 3 min, to 50% in 2 min, to 85% in 15 min, held 3 min, 100 µL/min
Details: column: Zorbax Extend-C18 2.1 x 50 mm; eluents: water / acetonitrile, 0.1% formic acid
Method in brief: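 Values are retention times taken from adduct peaks that software picked and an analyst inspected. The pure standards were run as mixtures of ~100 molecules on HPLC linked to a quadrupole time-of-flight mass spectrometer, in positive and negative ionization mode. A Zorbax Extend-C18 column (2.1 × 50 mm, 1.8 μm) was used at 100 μL/min with water and acetonitrile, each including 0.1% formic acid.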

Compared with `COc1ccc(-c2nc(-c3ccc4c(c3)ncn4CCN3CCCCC3)no2)cc1OC`, `COc1ccc(N2CC(c3noc(-c4ccc(C)cc4)n3)CC2=O)cc1OC` (centres undefined) is higher in RP-LC retention time: 630 s for the first, 909 s for the second.

Compared with `CCc1nc(-c2csc(S(=O)(=O)N3CCC(C(=O)Nc4ccc(C)cc4C)CC3)c2)no1`, `CC(C)NC(=O)C1CCN(S(=O)(=O)c2cc(-c3noc(C4CCC4)n3)cs2)CC1` is lower in RP-LC retention time: 1090 s for the first, 913 s for the second.

Compared with `CS(=O)(=O)N1CCCc2ccc(NS(=O)(=O)CCN3C(=O)CCCC3=O)cc21`, `CS(=O)(=O)N1CCCC(C(=O)Nc2ccc3c(c2)C(=O)NC3=O)C1` (centres undefined) is lower in RP-LC retention time: 622 s for the first, 612 s for the second.

Compared with `Clc1cccc(-c2nnc(-c3nc(NCc4cccnc4)c4ccccc4n3)o2)c1`, `Fc1ccc(-c2nnc(Cc3nc(-c4cccc(Br)c4)no3)o2)cc1` is higher in RP-LC retention time: 705 s for the first, 1090 s for the second.

Going from `CCOC(=O)C(C(=O)Nc1ccccn1)C1CCCCC1` (centres undefined) to `O=C(CCC1CCCCC1)Nc1cccc(-c2cn3cccnc3n2)c1`, the RP-LC retention time falls from 908 s to 823 s.

Going from `Cc1cccc(S(=O)(=O)N2C[C@@H]3CN(S(=O)(=O)c4c(C)noc4C)C[C@H](C2)O3)c1` to `CCOc1ccccc1C(=O)n1nc(C)c(S(=O)(=O)N2CCOCC2)c1C`, the RP-LC retention time rises from 920 s to 962 s.

First: CC(C)c1cc(N2CCN(C(=O)Cc3cccs3)CC2)nc2nncn12
Second: CCc1nnc2cc(N3CCN(C(=O)c4ccc(C(C)C)cc4)CC3)cnn12
The RP-LC retention time of the first is lower: 613 s for the first, 731 s for the second.

Compared with `Cc1nnc(N2CCCC(C(=O)NCCCN3CCCC3)C2)c2nn(-c3ccccc3)c(C)c12` (centres undefined), `CCOc1ccccc1N(C)C(=O)C1CCCN(c2ncnc3c2nc2n3CCCCC2)C1` (centres undefined) is higher in RP-LC retention time: 558 s for the first, 850 s for the second.

First: O=C(Cc1csc2nc(-c3ccccc3)cn12)N1CCN(c2ccc(Cl)cc2)CC1
Second: O=C(CCC(=O)N1CCOc2ccc(Cl)cc21)N1CCN(c2ccccn2)CC1
The RP-LC retention time of the first is higher: 915 s for the first, 656 s for the second.

Compared with `CC(C)CNC(=O)N1CCN(Cc2nc3cccnc3n2-c2cccc(F)c2)CC1`, `CCc1ccc(C(=O)NCCc2nc3cccnc3n2CC)cc1` is higher in RP-LC retention time: 634 s for the first, 694 s for the second.

Going from `O=S(=O)(c1ccc(F)cc1F)N1CCN(Cc2cccc(F)c2)C2(CCOCC2)C1` to `CN1c2cc(F)ccc2C(=O)NC12CCN(C(=O)Nc1ccccc1F)CC2`, the RP-LC retention time falls from 844 s to 735 s.

Going from `Cc1cccc(C)c1NC(=O)N1CCCC1c1nncn1C1CCCC1` (centres undefined) to `Cc1cccc(NC(=O)N2CC(Cc3nncn3C(C)C)C2)c1C`, the RP-LC retention time falls from 722 s to 627 s.

Compared with `Cc1cccc(-c2noc(Cn3ccn(-c4ccccc4)c(=O)c3=O)n2)c1`, `Cc1nc2cc(-c3noc(C(C)NC(=O)c4ccccc4)n3)ccc2o1` (centres undefined) is lower in RP-LC retention time: 838 s for the first, 811 s for the second.

Compared with `CCn1c(C2CC(=O)N(Cc3ccccc3)C2)nc2ccccc21` (centres undefined), `CCn1c(=O)c(N2CCCC(C(=O)N3CCN(c4cccc(OC)c4)CC3)C2)nc2ccccc21` (centres undefined) is higher in RP-LC retention time: 650 s for the first, 1100 s for the second.

First: Cc1nc(C)c(C(=O)NCc2ccc3c(c2)ncn3C(C)C)s1
Second: Cc1ccc(C)c(CNC(=O)c2nc(C)oc2C)c1
The RP-LC retention time of the first is lower: 568 s for the first, 867 s for the second.

Going from `CCN1C(=O)c2ccccc2Oc2ccc(C(=O)NCCc3ccccc3)cc21` to `COc1ccc(CNC(=O)CN2C(=O)CC(c3cccs3)=Nc3ccccc32)cc1`, the RP-LC retention time rises from 845 s to 863 s.

Compared with `O=C(Cc1ccc(Cl)cc1)NC1CCN(c2cc(-c3cccs3)[nH]n2)C1` (centres undefined), `Cc1cc(C(=O)NCc2ccc(F)cc2)nc2cc(-c3cccs3)nn12` is higher in RP-LC retention time: 749 s for the first, 1090 s for the second.

Compared with `O=C(CCNc1cnc2cnccn12)NCc1ccc(N2CCCCC2)cc1`, `CC(NC(=O)c1ccco1)c1nc(-c2ccc(N3CCCCCC3)cc2)no1` (centres undefined) is higher in RP-LC retention time: 533 s for the first, 1110 s for the second.

Compared with `Cc1cc(OCC(=O)N[C@@H](C)C(=O)O)c2c3c(c(=O)oc2c1)CCCC3`, `CC(=O)c1cccc(NC(=O)c2noc3c2CCCC3)c1` is higher in RP-LC retention time: 746 s for the first, 874 s for the second.

Compared with `CN(C)CC1CCN(C(=O)NC2CCCCC2)CC1`, `O=C(CN1C(=O)C2CCCCN2c2ccc(C(=O)N3CCCCC3)cc21)NC1CCCC1` (centres undefined) is higher in RP-LC retention time: 570 s for the first, 828 s for the second.

Going from `CC1CCN(S(=O)(=O)N2CCCC(C(=O)NC3CCN(Cc4ccccc4)CC3)C2)CC1` (centres undefined) to `O=C(Nc1ccccc1F)C1CCN(S(=O)(=O)c2cc(C(=O)N3CCCCCC3)cs2)CC1`, the RP-LC retention time rises from 713 s to 916 s.

Going from `Cc1nc([C@@H]2CN(C(=O)c3cscn3)C[C@H]2C(N)=O)n[nH]1` to `Cc1noc(C2CCCCN2CC(=O)Nc2nccs2)n1` (centres undefined), the RP-LC retention time rises from 533 s to 675 s.

Going from `COc1ccc(C(=O)Nc2nc3c(s2)Cc2c(Br)ccc(OC)c2-3)cc1OC` to `CCN1C(=O)COc2ccc(-c3noc(-c4cc(OC)c(OC)c(OC)c4)n3)cc21`, the RP-LC retention time falls from 1100 s to 1060 s.

Compared with `CCn1cc(-c2ccncc2)cc1C(=O)NCc1ccc(Br)cc1`, `Cc1ccc(-c2nocc2CCC(=O)NCc2ccc(F)cc2)cc1` is higher in RP-LC retention time: 698 s for the first, 919 s for the second.

Going from `COc1ccc(N2CCN(c3cc(SCC(=O)Nc4cccc(OC)c4)ncn3)CC2)cc1` to `Cc1ccc(OCC(O)CN2CCN(c3ccccc3)CC2)cc1C` (centres undefined), the RP-LC retention time falls from 894 s to 726 s.

Going from `O=C(c1cnn2cc(Br)cnc12)N1CCCC1c1ccccc1F` (centres undefined) to `O=C(Nc1cccc(Br)c1)C1CCN(c2nccnc2Sc2ccccc2)CC1`, the RP-LC retention time rises from 841 s to 1190 s.

Compared with `Cc1ccc(CC(=O)N(CCS(=O)(=O)N2CCNCC2)CC2CCCO2)cc1` (centres undefined), `Cc1ccc(S(=O)(=O)N2CCC(CCNC(=O)NCCC(C)C)CC2)cc1` is higher in RP-LC retention time: 645 s for the first, 715 s for the second.

First: COc1ccc(CNC(=O)c2cn3ccc(C)cc3n2)c(OC)c1
Second: COc1ccc(NC(=O)c2nc(N3CCCC3)c3c(C)cc(C)nc3n2)c(C)c1
The RP-LC retention time of the first is higher: 730 s for the first, 666 s for the second.

Going from `COc1cccc(NC(=O)NCCC2CCN(S(=O)(=O)c3ccccc3)CC2)c1` to `O=C(C1CC1)N1CCc2ccc(NS(=O)(=O)/C=C/c3ccccc3)cc21`, the RP-LC retention time falls from 870 s to 819 s.

Compared with `COc1cccc(-c2cc3n(n2)CCCN(C(=O)c2ccsc2)C3)c1`, `COc1cccc(-c2ccnc3nc(C4CCC4)nn23)c1` is higher in RP-LC retention time: 714 s for the first, 868 s for the second.

Compared with `CN1C2CCC1CC(OC(c1ccccc1)c1ccccc1N)C2` (centres undefined), `O=S(=O)(NCCOc1ccccc1)c1ccccc1Cl` is higher in RP-LC retention time: 752 s for the first, 869 s for the second.

Compared with `CCc1ccccc1NC(=O)C1CC(=O)N(c2ccc3oc(C)nc3c2)C1` (centres undefined), `COCc1cc2nn(CC(=O)Nc3ccc(F)cc3C)c(=O)n2c(-c2ccccc2)n1` is higher in RP-LC retention time: 723 s for the first, 826 s for the second.

First: CCS(=O)(=O)c1nc2ccc(NS(=O)(=O)CCc3ccccc3)cc2s1
Second: Cc1ccnc(NS(=O)(=O)c2ccc(NC(=O)C3COc4ccccc4O3)cc2)n1 (centres undefined)
The RP-LC retention time of the first is higher: 918 s for the first, 711 s for the second.

First: Cc1c(Cl)cccc1NC(=O)Cn1c(C)nc2c(sc3nc(-c4ccccc4)ccc32)c1=O
Second: CCOc1ccccc1NC(=O)Cn1c(=O)n(Cc2cccs2)c(=O)c2ncccc21
The RP-LC retention time of the first is higher: 1210 s for the first, 772 s for the second.

Going from `CCN1C(=O)c2cc(C(=O)NCCc3ccccc3)nn2CC1(C)C(=O)NC1CCCC1` (centres undefined) to `CCN1C(=O)c2c(C(=O)NCCc3ccccc3)ncn2CC1(C)C(=O)NC1CCCC1` (centres undefined), the RP-LC retention time falls from 791 s to 756 s.

First: O=C1C(N2CCN(S(=O)(=O)c3ccccc3F)CC2)CCN1Cc1ccccn1 (centres undefined)
Second: O=S(=O)(c1ccc2c(c1)CCC2)N1CC[C@@H]2COCCN(Cc3cccnc3)[C@@H]2C1
The RP-LC retention time of the first is lower: 571 s for the first, 687 s for the second.

First: CCCCCCNCc1ccc2c(c1)n(C)c(=O)n2C
Second: CCOC(=O)c1c(C)[nH]c(C(=O)N2CCC(CC(=O)NCc3ccc(CC)cc3)CC2)c1C
The RP-LC retention time of the first is lower: 604 s for the first, 869 s for the second.

Compared with `NC1=N[C@@]2(c3cc(NC(=O)c4ccc(F)cn4)ccc3F)COC[C@H]2CS1`, `O=C(NCCSc1ncc(-c2ccc(F)cc2)[nH]1)c1ccc(Br)o1` is lower in RP-LC retention time: 674 s for the first, 596 s for the second.

Compared with `CC1Cc2ccccc2N1C(=O)c1ccc(=O)n(CCC(=O)N2CCCCCC2)n1` (centres undefined), `O=C(NCC1CCN(C(=O)c2cc3ccccc3o2)CC1)C(=O)NCC1CCCO1` (centres undefined) is lower in RP-LC retention time: 814 s for the first, 691 s for the second.

First: Cc1ccc(NC(=O)Cn2cnc3nc(N4CCCC(C(=O)NC(C)C)C4)sc3c2=O)c(F)c1 (centres undefined)
Second: CC(C)NC(=O)Cn1ccn2nc(-c3ccc(F)cc3)c(CO)c2c1=O
The RP-LC retention time of the first is higher: 701 s for the first, 682 s for the second.

First: CCOc1ccc(C(=O)N2C[C@@H]3C[C@H]2C[C@@H]3NC(=O)c2cccs2)cc1
Second: COc1ccc(CCN2CCC(CNS(=O)(=O)c3cc(-c4cc(C)no4)cs3)CC2)cc1
The RP-LC retention time of the first is higher: 758 s for the first, 718 s for the second.

Going from `CCOC(=O)c1ccccc1NC(=O)Cn1nc2c(Oc3ccccc3)nccn2c1=O` to `Cc1cc(C(=O)OCC(=O)c2cccc([N+](=O)[O-])c2)c2ccccc2n1`, the RP-LC retention time falls from 1000 s to 804 s.

Compared with `CN1CCN(c2c(C(=O)c3ccccc3)cnc3cc4c(cc23)OCO4)CC1`, `Cc1cc(C)c2c(n1)nn1c(N3CCN(c4ccccn4)CC3)cc(C)nc21` is higher in RP-LC retention time: 560 s for the first, 561 s for the second.

Compared with `CCCCNC(=O)C1CCN(C(=O)CCc2c(C)[nH]c(C(=O)OCC)c2C)CC1`, `Cc1ccc(-c2noc(-c3cccc(S(=O)(=O)NCCCN4CCC(C)CC4)c3)n2)cc1` is higher in RP-LC retention time: 748 s for the first, 826 s for the second.

For `c1ccc2oc(SCc3cn4ccsc4n3)nc2c1`, the RP-LC retention time was 653 s.
